In PubChem BioAssay (NCI):
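Exposure lasted 48 hours, with cells grown in 96-well plates and compounds tested at five concentrations. Here, GI50 denotes the concentration required for 50% inhibition of growth. At the TGI there is no net growth.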

Columns and labels:
Assay in all cases: inhibition of tumour cell growth, NCI panel, 48 h
HOP-62 NSCLC = test system: HOP-62 NSCLC
OVCAR-8 ovarian = test system: OVCAR-8 ovarian
HCT-15 colon = test system: HCT-15 colon
ACHN renal = test system: ACHN renal
UO-31 renal = test system: UO-31 renal
SF-539 CNS = test system: SF-539 CNS
SK-MEL-2 melanoma = test system: SK-MEL-2 melanoma
NCI-H460 lung = test system: NCI-H460 lung
PC-3 prostate = test system: PC-3 prostate
MCF7 breast = test system: MCF7 breast

| Structure (SMILES) | TGI (HOP-62 NSCLC) [µM] | TGI (OVCAR-8 ovarian) [µM] | TGI (HCT-15 colon) [µM] | TGI (ACHN renal) [µM] | TGI (UO-31 renal) [µM] | TGI (SF-539 CNS) [µM] | TGI (SK-MEL-2 melanoma) [µM] | TGI (NCI-H460 lung) [µM] | GI50 (HOP-62 NSCLC) [µM] | GI50 (OVCAR-8 ovarian) [µM] | GI50 (PC-3 prostate) [µM] | TGI (PC-3 prostate) [µM] | GI50 (UO-31 renal) [µM] | GI50 (SK-MEL-2 melanoma) [µM] | GI50 (NCI-H460 lung) [µM] | TGI (MCF7 breast) [µM] | GI50 (HCT-15 colon) [µM] | GI50 (ACHN renal) [µM] | GI50 (SF-539 CNS) [µM] | GI50 (MCF7 breast) [µM] |
| --- | --- | --- | --- | --- | --- | --- | --- | --- | --- | --- | --- | --- | --- | --- | --- | --- | --- | --- | --- | --- |
| CN1C(=O)CC2(C)c3cc(O)cc(Br)c3N(C)C12 (stereo not drawn) | > 100 | > 100 | > 100 | > 100 | > 100 | > 100 | > 100 | > 100 |  |  |  |  |  |  |  |  |  |  |  |  |
| CC1(C)NC(=O)N(CCCCCCN2C(=O)NC(C)(C)C2=O)C1=O |  | > 100 | > 100 | > 100 | > 100 |  | > 100 | > 100 |  |  |  |  |  |  |  |  |  |  |  |  |
| COc1cccc(C=O)c1C(=O)c1cc(O)ccc1O | > 100 | 46.5 | 41.3 | 31.1 | 33.6 | > 100 | > 100 | > 100 |  |  |  |  |  |  |  |  |  |  |  |  |
| CCc1ccccc1NC(=O)C(=O)C(C#N)c1ccccc1Cl (stereo not drawn) | > 100 | > 100 |  | > 100 | > 100 |  | > 100 | 33.1 |  |  |  |  |  |  |  |  |  |  |  |  |
| O=C(CCC(=O)Nc1ccc(Cl)c(Cl)c1)CC(=O)c1ccc2ccccc2c1 | > 100 | > 100 | > 100 | > 100 | > 100 | > 100 | > 100 | > 100 |  |  |  |  |  |  |  |  |  |  |  |  |
| [O-]/N=[N+](/[O-])C1CCCCC1=[N+]1CCOCC1 (stereo not drawn) | > 100 | > 100 |  | > 100 | > 100 |  | > 100 | > 100 |  |  |  |  |  |  |  |  |  |  |  |  |
| COc1cc2c(cc1OC)C(C#N)N(C(=O)c1ccccc1)C=C2OC(=O)c1ccccc1 (stereo not drawn) | 35.2 | 71.8 | > 100 | 43.6 | 39.3 | 39 | 54.7 | > 100 |  |  |  |  |  |  |  |  |  |  |  |  |
| Nc1nc(N)c(CCCCc2ccccc2)c(C=O)n1 | > 100 | 45 | 45.4 | 51.6 | 45.4 | 36.3 | 40.3 | > 100 |  |  |  |  |  |  |  |  |  |  |  |  |
| O=C(NC(=Nc1ccccc1)SCSC(=Nc1ccccc1)NC(=O)c1ccco1)c1ccco1 | 44.9 | > 100 | > 100 | > 100 | > 100 | 59.1 | > 100 | > 100 |  |  |  |  |  |  |  |  |  |  |  |  |
| NC1N=Nc2ccccc21 (stereo not drawn) | > 100 | > 100 | > 100 | > 100 | > 100 | > 100 | > 100 | > 100 |  |  |  |  |  |  |  |  |  |  |  |  |
| O=[N+]([O-])c1cc(-c2nc(=S)[nH][nH]2)ccc1O | > 100 |  | 31 | > 100 | > 100 | > 100 | > 100 | > 100 |  |  |  |  |  |  |  |  |  |  |  |  |
| N#CCCN(CCC#N)c1ccc(/C=C(/NC(=O)c2cc([N+](=O)[O-])ccc2Cl)C(=O)NN)cc1 | > 100 | > 100 | > 100 | > 100 | > 100 | > 100 | > 100 | > 100 |  |  |  |  |  |  |  |  |  |  |  |  |
| COc1cc2c3c(n(CCCN(CCCN(CCCn4c5c(c6ccccc6c4=O)C(=O)c4ccccc4-5)C(=O)OC(C)(C)C)C(=O)OC(C)(C)C)c(=O)c2cc1OC)-c1cc2c(cc1C3=O)OCO2 | > 100 | > 100 |  |  | > 100 |  | > 100 | > 100 | > 100 | > 100 | > 100 | > 100 | > 100 | > 100 | 21.5 |  |  |  |  |  |
| CC(=O)OCC12CN(C#N)C3C4COC(CC41)C1(C(=O)N(C)c4ccccc41)C32 (stereo not drawn) | 58.6 | 55 | 35.5 | 38 | 31.4 |  | 63.6 | 94.5 |  |  |  | > 100 |  |  |  | 41.4 |  |  |  |  |
| Cc1cc(=O)[nH]c(CNC(=O)c2ccc3ccccc3c2)n1 | > 100 | > 100 | > 100 | > 100 | > 100 | > 100 | > 100 | > 100 |  |  |  |  |  |  |  |  |  |  |  |  |
| O=C(Cc1ccccc1[N+](=O)[O-])C(CO)c1ccccc1[N+](=O)[O-] (stereo not drawn) | > 100 | > 100 | > 100 | > 100 | > 100 | > 100 | > 100 | > 100 |  |  |  |  |  |  |  |  |  |  |  |  |
| O=C(C=Nc1ccccc1C(=O)[O-])c1cccs1.O=C(C=Nc1ccccc1C(=O)[O-])c1cccs1.[Ni+2] | > 100 | > 100 | > 100 | > 100 | > 100 | > 100 | > 100 | > 100 |  |  |  |  |  |  |  |  |  |  |  |  |
| COC(=O)C1CSC(c2csc(CCN)n2)=N1 (stereo not drawn) |  | > 100 | > 100 | > 100 | > 100 |  | > 100 | > 100 |  |  |  |  |  |  |  |  |  |  |  |  |
| COc1ccc(/C=C/C(=O)c2c(O)ccc3c(C)c(C(=O)O)oc23)cc1 | > 100 | > 100 | > 100 | > 100 | > 100 | > 100 |  | > 100 | 89.9 | 61.3 | 66 | > 100 | > 100 |  | 34 | > 100 | 28.2 | > 100 | 35.6 | 28.1 |
